Laboratory results: US11761045B2, “Splice variants associated with neomorphic SF3B1 mutants” (Eisai R&D Management Co., Ltd., priority 2015, dated 2023)

What was measured:
Nalm-6 SF3B1^K700E cells = assay: Splice variant levels in Nalm-6 isogenic cells by RNA-Seq; assay type: cell-based, human; conditions: additional compounds, FIG. 19
Method: (§1) To investigate the broader activity of E7107 on normal and aberrant splicing, RNA from Nalm-6 isogenic cells treated for two and six hours at 15 nM was analyzed by NanoString®. […] Normal and aberrant splicing in the isogenic cell lines was also analyzed by RNA-Seq following treatment with one of additional compounds having formulas 1 or 2. […] For the RNA-Seq analysis, cells were washed with PBS after treatment with E7107 or other test compound, and RNA was isolated using PureLink (Life Technology) as reported in the manufacturer's manual. cDNA library preparation, sequencing and raw read filtering was performed as described in Ren, S. et al. “RNA-Seq analysis of prostate cancer in the Chinese population identifies recurrent gene fusions, cancer-associated long noncoding RNAs and aberrant alternative splicings.” Cell Res 22, 806-821, doi:10.1038/cr.2012.30 (2012).

Nalm-6 SF3B1^K700K cells = assay: as above; assay type: cell-based, human; conditions: additional compounds, FIG. 19
Method: as §1

Row | SMILES | expression of WT-associated and MUT-associated RNA isoforms by RNA-Seq (Nalm-6 SF3B1^K700E cells) | expression of WT-associated and MUT-associated RNA isoforms by RNA-Seq (Nalm-6 SF3B1^K700K cells)
1 | C/C(=C\C=C\[C@@H](C)c1ccccn1)[C@H]1OC(=O)C[C@H](O)CC[C@@](C)(O)[C@@H](OC(=O)N2CCN(C3CCCCCC3)CC2)/C=C/[C@@H]1C [Compound 1] | inhibited expression of both WT-associated and MUT-associated RNA isoforms | inhibited expression of both WT-associated and MUT-associated RNA isoforms
2 | C/C(=C\C=C\[C@@H](C)c1ccccn1)[C@H]1OC(=O)C[C@H](O)CC[C@@](C)(O)[C@@H](OC(=O)N2CCN(C)CC2)/C=C/[C@@H]1C [Compound 2] | inhibited expression of both WT-associated and MUT-associated RNA isoforms | inhibited expression of both WT-associated and MUT-associated RNA isoforms
